Common to all, as to format: cell-based, human
One test concerns VCaP cells. In words: Anti-proliferative toxicity against prostate cancer cell line Vcap (CCK8). The note with it: 3 days; for IC50: Homo sapiens, 72 h, CCK8. Summed up:
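VCaP cells (DMEM, 10% FBS) seeded 20000 cells/well, cultured 72 h, then exposed in triplicate to compound at final well concentrations of 0.00001–0.16 μM for 3 days at 37 °C, 5% CO2. Viability by CCK8, 1–4 h at 37 °C, absorbance at 450 nm.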

A further test relates to 22Rv1 cells. In words: Anti-proliferative toxicity against prostate cancer cell line 22Rv1 (CCK8). The following applies: 3 days; for IC50: Homo sapiens, 72 h, CCK8. Summed up: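 22Rv1 cells pre-cultured for 48 h, then exposed to compounds at 0.00001-1.0 μM final, in triplicate, for 3 days. Viability read by CCK8 absorbance at 450 nm after 1-4 h at 37 °C.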
A further test relates to PC-3 cells. Kind of test: Anti-proliferative toxicity against prostate cancer cell line PC-3 (CCK8). The note with it: Homo sapiens, 72 h, 3 days. In outline: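 PC-3 cells (4000/well, pre-cultured 24 h) exposed in triplicate to compound at final 0.00001-1.0 μM for 3 days at 37 °C, 5% CO2. Viability read by CCK8, 1-4 h at 37 °C, absorbance at 450 nm.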

A value given as a limit tells only on which side of the number the result lay.

For orientation: IC50 means the concentration that inhibits the measured activity by half. Low values mean higher potency, high ones lower potency. Consider `C[C@]12C=CC(=O)N[C@@H]1CC[C@@H]1[C@@H]2CC[C@]2(C)[C@@H](C(=O)Nc3cccc(OCC4CCN(c5cccc6c5C(=O)N(C5CCC(=O)NC5=O)C6=O)CC4)c3)CC[C@@H]12` (stereo partly drawn) [C42, N-(3-((4-methyl-1-(4-(2-(3-(2,6-dioxopiperidine))-isoindole-1,3-dione))-piperidinyl)oxy)phenyl)-3-oxo-4-aza-5α-androst-1-ene-17β-carboxamide], for which the IC50 with VCaP cells, in the test on 22Rv1 cells and in the test on PC-3 cells was more than 1000 nM each time.

Consider `C[C@]12C=CC(=O)N[C@@H]1CC[C@@H]1[C@@H]2CC[C@]2(C)[C@@H](C(=O)Nc3cccc(N4CCC(CN5CCN(c6cccc7c6C(=O)N(C6CCC(=O)NC6=O)C7=O)CC5)CC4)c3)CC[C@@H]12` (stereo partly drawn) [C44, 1-(4-(1-(3-(3-oxo-4-aza-5α-androst-1-ene-17β-carboxamido)phenyl)piperidine))methyl-4-(4-(2-(3-(2,6-dioxopiperidine))-isoindole-1,3-dione))piperazine], for which the IC50 with VCaP cells, in the test on 22Rv1 cells and in the test with PC-3 cells was more than 1000 nM throughout.

As for `C[C@]12C=CC(=O)N[C@@H]1CC[C@@H]1[C@@H]2CC[C@]2(C)[C@@H](C(=O)Nc3cccc(N4CCC(CN5CCN(c6ccc7c(c6)C(=O)N(C6CCC(=O)NC6=O)C7=O)CC5)CC4)c3)CC[C@@H]12` (stereo partly drawn) [C45, 1-(4-(1-(3-(3-oxo-4-aza-5α-androst-1-ene-17β-carboxamido)phenyl)piperidine)methyl)-4-(5-(2-(3-(2,6-dioxopiperidine))-isoindole-1,3-dione))piperazine], the concentration for half-maximal inhibition (IC50) in the test on VCaP cells, in the test with 22Rv1 cells and in the test with PC-3 cells was more than 1000 nM each time.

As to `C[C@]12C=CC(=O)N[C@@H]1CC[C@@H]1[C@@H]2CC[C@]2(C)[C@@H](C(=O)Nc3cccc(OCCCOc4cccc5c4C(=O)N(C4CCC(=O)NC4=O)C5=O)c3)CC[C@@H]12` (stereo partly drawn) [C46, N-(3-((3-((4-(2-(3-(2,6-dioxopiperidine))-isoindole-1,3-dione))oxy)propyl)oxy)phenyl)-3-oxo-4-aza-5α-androst-1-ene-17β-carboxamide], the IC50 with VCaP cells is 0.1 to 10 nM; in the test with 22Rv1 cells, 0.1 to 10 nM; in the test on PC-3 cells, more than 1000 nM.

For the molecule `C[C@]12C=CC(=O)N[C@@H]1CC[C@@H]1[C@@H]2CC[C@]2(C)[C@@H](C(=O)Nc3ccc(OCCNc4ccc5c(c4)C(=O)N(C4CCC(=O)NC4=O)C5=O)nc3)CC[C@@H]12` (stereo partly drawn) [C47, N-(5-(2-((2-((5-(2-(3-(2,6-dioxopiperidine))-isoindole-1,3-dione))amino)ethyl)oxy)pyridine))-3-oxo-4-aza-5α-androst-1-ene-17β-carboxamide], the figures for the IC50 in the test on VCaP cells, in the test with 22Rv1 cells and in the test with PC-3 cells were 10 to 1000 nM, 10 to 1000 nM and more than 1000 nM, respectively.

In the case of `C[C@]12C=CC(=O)N[C@@H]1CC[C@@H]1[C@@H]2CC[C@]2(C)[C@@H](C(=O)Nc3cccc(N4CCC(CNc5cccc6c5C(=O)N(C5CCC(=O)NC5=O)C6=O)CC4)c3)CC[C@@H]12` (stereo partly drawn) [C48, N-(3-(4-(((4-(2-(3-(2,6-dioxopiperidine))-isoindole-1,3-dione))amino)methyl)piperidine)phenyl)-3-oxo-4-aza-5α-androst-1-ene-17β-carboxamide], the half-inhibitory concentration (IC50) in the test on VCaP cells, with 22Rv1 cells and in the test with PC-3 cells was more than 1000 nM in each case.

Regarding `CC(C)(C)C(=O)OCN1C(=O)CCC(N2C(=O)c3cccc(NCCCOc4cccc(NC(=O)[C@H]5CC[C@H]6[C@@H]7CC[C@H]8NC(=O)C=C[C@]8(C)[C@H]7CC[C@]56C)c4)c3C2=O)C1=O` (stereo partly drawn) [C49, N-(3-((3-((4-(2-(3-(1-pivaloyloxymethyl-2,6-dioxopiperidine))-isoindole-1,3-dione))amino)propyl)oxy)phenyl)-3-oxo-4-aza-5α-androst-1-ene-17β-carboxamide], the figures for the IC50 in the test on VCaP cells, in the test on 22Rv1 cells and with PC-3 cells were 0.1 to 10 nM, 0.1 to 10 nM and more than 1000 nM, respectively.

For `C[C@]12C=CC(=O)N[C@@H]1CC[C@@H]1[C@@H]2CC[C@]2(C)[C@@H](C(=O)Nc3cccc(NCCCNc4cccc5c4C(=O)N(C4CCC(=O)NC4=O)C5=O)c3)CC[C@@H]12` (stereo partly drawn) [C50, N-(3-((3-((4-(2-(3-(2,6-dioxopiperidine))-isoindole-1,3-dione))amino)propyl)amino)phenyl)-3-oxo-4-aza-5α-androst-1-ene-17β-carboxamide], the “Anti-proliferative toxicity data in VCaP cells” value stood at 1.2% with VCaP cells (0.00005 μM); 22.8% with VCaP cells (0.00010 μM); 72.3% with VCaP cells (0.00030 μM); 86.6% with VCaP cells (0.00100 μM); 90.5% in the test on VCaP cells (0.00300 μM); 90.7% with VCaP cells (0.00600 μM). In addition, the “Anti-proliferative toxicity data in VCaP cells” value was 91.5% in the test with VCaP cells (0.03200 μM) and 91.7% with VCaP cells (0.16000 μM). Further, the IC50 was in the range of 0.1 to 10 nM in the test with VCaP cells, 0.1 to 10 nM with 22Rv1 cells and 10 to 1000 nM in the test on PC-3 cells. In addition, the “Anti-proliferative toxicity data in 22Rv1 cells” value in the test on 22Rv1 cells (0.00006 μM) turned out to be 6.6%; with 22Rv1 cells (0.00032 μM) it was 45.2%; with 22Rv1 cells (0.00160 μM) it was 78.4%; in the test with 22Rv1 cells (0.00800 μM) it was 80.7%; in the test on 22Rv1 cells (0.04000 μM), 75.0%; with 22Rv1 cells (0.20000 μM) it was 80.6%. The “Anti-proliferative toxicity data in 22Rv1 cells” value in the test on 22Rv1 cells (1.00000 μM) was 81.5%.

On to `C[C@]12C=CC(=O)N[C@@H]1CC[C@@H]1[C@@H]2CC[C@]2(C)[C@@H](C(=O)Nc3ccc(Cl)c(OCCCNc4cccc5c4C(=O)N(C4CCC(=O)NC4=O)C5=O)c3)CC[C@@H]12` (stereo partly drawn) [C51, N-(3-((3-((4-(2-(3-(2,6-dioxopiperidine))-isoindole-1,3-dione))amino)propyl)oxy)-4-chloro-phenyl)-3-oxo-4-aza-5α-androst-1-ene-17β-carboxamide], for which the half-maximal inhibitory concentration (IC50) in the test with VCaP cells, in the test on 22Rv1 cells and in the test on PC-3 cells was more than 1000 nM each time.

As to `Cc1ccc(NC(=O)[C@H]2CC[C@H]3[C@@H]4CC[C@H]5NC(=O)C=C[C@]5(C)[C@H]4CC[C@]23C)cc1OCCCNc1cccc2c1C(=O)N(C1CCC(=O)NC1=O)C2=O` (stereo partly drawn) [C52, N-(3-((3-((4-(2-(3-(2,6-dioxopiperidine))-isoindole-1,3-dione))amino)propyl)oxy)-4-methyl-phenyl)-3-oxo-4-aza-5α-androst-1-ene-17β-carboxamide], the half-maximal inhibitory concentration (IC50) with VCaP cells, in the test on 22Rv1 cells and in the test with PC-3 cells was more than 1000 nM each time.

Regarding `C[C@]12C=CC(=O)N[C@@H]1CC[C@@H]1[C@@H]2CC[C@]2(C)[C@@H](C(=O)Nc3cc(OCCCNc4cccc5c4C(=O)N(C4CCC(=O)NC4=O)C5=O)ccn3)CC[C@@H]12` (stereo partly drawn) [C53, N-(2-(4-((3-((4-(2-(3-(2,6-dioxopiperidine))-isoindole-1,3-dione))amino)propyl)oxy)-pyridine))-3-oxo-4-aza-5α-androst-1-ene-17β-carboxamide], the IC50 in the test with VCaP cells, in the test with 22Rv1 cells and in the test with PC-3 cells was more than 1000 nM throughout.

For the molecule `C[C@]12C=CC(=O)N[C@@H]1CC[C@@H]1[C@@H]2CC[C@]2(C)[C@@H](C(=O)Nc3cccc(NC4CCC(Nc5cccc6c5C(=O)N(C5CCC(=O)NC5=O)C6=O)CC4)c3)CC[C@@H]12` (stereo partly drawn) [C54, N-(3-((4-((4-(2-(3-(2,6-dioxopiperidine))-isoindole-1,3-dione))amino)cyclohexyl)amino)phenyl)-3-oxo-4-aza-5α-androst-1-ene-17β-carboxamide], the half-maximal inhibitory concentration (IC50) with VCaP cells, in the test with 22Rv1 cells and in the test on PC-3 cells was more than 1000 nM in each case.

Consider `C[C@]12C=CC(=O)N[C@@H]1CC[C@@H]1[C@@H]2CC[C@]2(C)[C@@H](C(=O)Nc3cc(Cl)cc(OCCCNc4cccc5c4C(=O)N(C4CCC(=O)NC4=O)C5=O)c3)CC[C@@H]12` (stereo partly drawn) [C55, N-(3-((3-((4-(2-(3-(2,6-dioxopiperidine))-isoindole-1,3-dione))amino)propyl)oxy)-5-chloro-phenyl)-3-oxo-4-aza-5α-androst-1-ene-17β-carboxamide], for which the IC50 with VCaP cells was 10 to 1000 nM; in the test on 22Rv1 cells, 10 to 1000 nM; in the test on PC-3 cells, more than 1000 nM.

Take `C[C@]12C=CC(=O)N[C@@H]1CC[C@@H]1[C@@H]2CC[C@]2(C)[C@@H](C(=O)Nc3cccc(NCCNc4cccc5c4C(=O)N(C4CCC(=O)NC4=O)C5=O)c3)CC[C@@H]12` (stereo partly drawn) [C56, N-(3-((2-((4-(2-(3-(2,6-dioxopiperidine))-isoindole-1,3-dione))amino)ethyl)amino)phenyl)-3-oxo-4-aza-5α-androst-1-ene-17β-carboxamide]: the IC50 with VCaP cells, with 22Rv1 cells and with PC-3 cells was more than 1000 nM throughout.

Consider `C[C@]12C=CC(=O)N[C@@H]1CC[C@@H]1[C@@H]2CC[C@]2(C)[C@@H](C(=O)Nc3cccc(OC4CCC(Nc5cccc6c5C(=O)N(C5CCC(=O)NC5=O)C6=O)C4)c3)CC[C@@H]12` (stereo partly drawn) [C57, N-(3-((3-((4-(2-(3-(2,6-dioxopiperidine))-isoindole-1,3-dione))amino)cyclopentyl)oxy)phenyl)-3-oxo-4-aza-5α-androst-1-ene-17β-carboxamide], for which the IC50 with VCaP cells was 10 to 1000 nM; in the test on 22Rv1 cells, 10 to 1000 nM; in the test on PC-3 cells, more than 1000 nM.

These data come from patent US20250213701A1, “MEDICAMENT FOR TREATING HUMAN TUMOR BASED ON ERF3A-TARGETING PROTEOLYSIS MECHANISM” (SUZHOU DEGEN BIO-MEDICAL CO., LTD., priority 2022, published 2025).
